Eleven molecules from ChEMBL document CHEMBL1201862, “PubChem BioAssay data set” (2004) can be followed below.

The target of one experiment is T1, Hexokinase-1 (Homo sapiens, UniProt P19367).
T1 sequence (P19367 whole entry): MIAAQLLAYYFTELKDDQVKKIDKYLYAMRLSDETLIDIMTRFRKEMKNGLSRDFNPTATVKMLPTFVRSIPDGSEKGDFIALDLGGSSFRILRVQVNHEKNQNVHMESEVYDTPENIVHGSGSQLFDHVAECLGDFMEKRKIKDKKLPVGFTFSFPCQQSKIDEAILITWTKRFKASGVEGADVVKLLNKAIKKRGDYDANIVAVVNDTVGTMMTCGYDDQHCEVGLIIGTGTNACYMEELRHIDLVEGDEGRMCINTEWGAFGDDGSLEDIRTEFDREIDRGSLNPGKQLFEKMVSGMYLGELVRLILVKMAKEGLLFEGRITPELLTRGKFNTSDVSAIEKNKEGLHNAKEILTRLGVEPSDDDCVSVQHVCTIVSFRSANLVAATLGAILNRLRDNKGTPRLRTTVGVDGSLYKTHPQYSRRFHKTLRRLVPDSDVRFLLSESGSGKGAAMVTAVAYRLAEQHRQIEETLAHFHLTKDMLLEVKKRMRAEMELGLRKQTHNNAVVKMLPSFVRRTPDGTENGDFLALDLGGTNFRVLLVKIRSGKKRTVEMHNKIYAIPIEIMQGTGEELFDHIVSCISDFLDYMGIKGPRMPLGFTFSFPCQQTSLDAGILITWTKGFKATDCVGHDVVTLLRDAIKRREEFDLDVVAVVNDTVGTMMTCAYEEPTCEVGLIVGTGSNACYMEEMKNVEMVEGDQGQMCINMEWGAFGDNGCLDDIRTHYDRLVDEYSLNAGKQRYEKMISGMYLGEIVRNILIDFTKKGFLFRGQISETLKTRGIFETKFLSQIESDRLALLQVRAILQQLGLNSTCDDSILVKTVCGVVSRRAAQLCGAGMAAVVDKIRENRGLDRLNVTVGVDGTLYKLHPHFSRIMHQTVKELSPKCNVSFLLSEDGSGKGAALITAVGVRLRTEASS
Briefly: HK1 enzyme activation by HKDC1 hits – biochemical, selectivity assay for HKDC1 activator project, dose response (AID 504762). The format is functional.

For the next experiment, the system named is INS1. Briefly: INS-1E survival protection against cytokine death – cell-based, luminescence, retest, dose response (AID 449756).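 Note: cell death triggered by IL-1 beta plus TNF-alpha plus IFN-gamma mixture; protective hits raise ATP signal compared with cytokine alone wells.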 The conditions noted are these: Rattus norvegicus. The format is functional.
Another experiment addresses T2, Hexokinase HKDC1 (Homo sapiens, UniProt Q2TB90).
T2 sequence (Q2TB90 whole entry): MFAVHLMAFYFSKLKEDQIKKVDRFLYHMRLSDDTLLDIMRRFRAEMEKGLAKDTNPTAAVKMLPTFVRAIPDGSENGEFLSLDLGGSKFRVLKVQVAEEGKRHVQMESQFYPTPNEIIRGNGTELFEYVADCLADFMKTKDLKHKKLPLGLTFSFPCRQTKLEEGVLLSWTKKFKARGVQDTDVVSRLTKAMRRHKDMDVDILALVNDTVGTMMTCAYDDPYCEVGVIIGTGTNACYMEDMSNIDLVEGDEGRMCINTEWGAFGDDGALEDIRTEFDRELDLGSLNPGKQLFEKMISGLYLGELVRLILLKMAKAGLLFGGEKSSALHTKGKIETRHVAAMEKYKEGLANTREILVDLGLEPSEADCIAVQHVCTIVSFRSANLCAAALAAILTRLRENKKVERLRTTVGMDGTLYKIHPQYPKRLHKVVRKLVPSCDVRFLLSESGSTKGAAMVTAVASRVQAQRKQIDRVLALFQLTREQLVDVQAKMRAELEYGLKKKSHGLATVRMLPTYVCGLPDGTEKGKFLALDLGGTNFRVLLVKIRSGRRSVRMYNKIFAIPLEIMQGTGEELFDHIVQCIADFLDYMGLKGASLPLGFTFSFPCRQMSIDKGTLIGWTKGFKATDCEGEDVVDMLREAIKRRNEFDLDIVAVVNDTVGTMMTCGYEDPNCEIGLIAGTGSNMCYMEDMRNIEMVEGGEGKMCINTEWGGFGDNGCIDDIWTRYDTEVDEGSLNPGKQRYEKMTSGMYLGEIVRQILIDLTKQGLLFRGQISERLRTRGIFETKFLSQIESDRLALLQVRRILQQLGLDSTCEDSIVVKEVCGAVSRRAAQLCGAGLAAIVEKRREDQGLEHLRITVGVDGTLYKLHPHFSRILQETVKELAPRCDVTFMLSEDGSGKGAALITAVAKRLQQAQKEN
Description: activation of HKDC1 glucose phosphorylation – biochemical, W721R variant, dose response (AID 504730). The format is functional.

Experiment [1] is described as follows: viability of uninfected HEp-2 cells – cell-based, HTS, cytotoxicity control for RSV inhibitor project, dose response (AID 2410). Format: functional. The conditions noted are these: human respiratory syncytial virus.
The target in a further experiment is Troponin, cardiac muscle (Homo sapiens, UniProt P19429+P45379+P63316). Description: Fluorescence-based biochemical high throughput dose response assay for activators of the calcium sensitivity of cardiac Regulated Thin Filaments (RTF). [Related pubchem assays (depositor defined):AID493008, AID493018, AID504382, AID504383]. The format is protein-complex assay.

The target in experiment [2] is T3, Oxysterols receptor LXR-beta (Homo sapiens, UniProt P55055).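 Note: Cell-based luminescence dose-response assay of agonist activity at LXR, run as a confirmatory counterscreen to a daf-12 agonist screen; HEK293 cells with Gal4-LXR fusion and GAL4-driven luciferase reporter; agonist potency from rising luciferase signal of a Gal4-LXR reporter.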
T3 sequence (P55055 whole entry): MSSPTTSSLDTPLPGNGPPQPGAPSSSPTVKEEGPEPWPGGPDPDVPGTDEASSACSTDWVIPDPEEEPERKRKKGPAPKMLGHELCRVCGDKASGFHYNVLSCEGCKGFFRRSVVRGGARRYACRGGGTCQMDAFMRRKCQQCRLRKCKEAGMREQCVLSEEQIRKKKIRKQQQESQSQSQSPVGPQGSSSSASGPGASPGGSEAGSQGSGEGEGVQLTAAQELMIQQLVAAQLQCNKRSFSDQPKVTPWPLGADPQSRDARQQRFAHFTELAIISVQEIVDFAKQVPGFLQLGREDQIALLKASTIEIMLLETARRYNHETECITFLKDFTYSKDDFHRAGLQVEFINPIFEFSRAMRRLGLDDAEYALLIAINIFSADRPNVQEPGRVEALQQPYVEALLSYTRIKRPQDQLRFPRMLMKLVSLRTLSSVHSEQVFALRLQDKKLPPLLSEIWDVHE
The format is functional, cell-based.

Experiment [3] deals with T4, Intestinal-type alkaline phosphatase (Homo sapiens, UniProt P09923). Briefly: Dose Response confirmation of uHTS hits from a small molecule inhibitors of human intestinal alkaline phosphatase via a luminescent assay. [Related pubchem assays (depositor defined):AID2544, AID2574]. The format is functional.
T4 sequence (P09923 whole entry): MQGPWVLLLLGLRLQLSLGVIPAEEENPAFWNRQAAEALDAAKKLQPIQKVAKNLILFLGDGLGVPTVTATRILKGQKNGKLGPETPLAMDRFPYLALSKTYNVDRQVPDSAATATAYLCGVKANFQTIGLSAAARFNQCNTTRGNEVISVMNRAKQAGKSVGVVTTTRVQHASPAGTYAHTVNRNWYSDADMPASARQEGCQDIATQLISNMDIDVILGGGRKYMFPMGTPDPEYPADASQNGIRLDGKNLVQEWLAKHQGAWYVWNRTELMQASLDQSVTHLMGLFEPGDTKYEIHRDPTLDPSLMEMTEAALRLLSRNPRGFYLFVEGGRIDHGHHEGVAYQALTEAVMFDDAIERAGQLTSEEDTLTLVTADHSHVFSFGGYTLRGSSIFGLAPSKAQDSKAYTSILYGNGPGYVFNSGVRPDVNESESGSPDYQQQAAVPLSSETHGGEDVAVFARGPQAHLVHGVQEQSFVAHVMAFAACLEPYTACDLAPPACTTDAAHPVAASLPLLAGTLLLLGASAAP
For experiment [4], the target named is T4, Intestinal-type alkaline phosphatase. Briefly: human intestinal alkaline phosphatase activators, dose response, biochemical, luminescence, uHTS hits (AID 463120). Format: functional.
The target in experiment [5] is Peroxisome proliferator-activated receptor gamma/Nuclear receptor coactivator 3 (Homo sapiens, UniProt P37231). Briefly: TR-FRET dose response biochemical High Throughput Screening assay for agonists of the steroid receptor coactivator 3 (SRC-3) recruitment by the peroxisome proliferator-activated receptor gamma (PPAR gamma): non-selective agonists. [Related pubchem assays: 1301 (Confirmation screen.), 1048 (Primary screen.)]. The format is functional.

In experiment [6] the target is Peroxisome proliferator-activated receptor gamma/Nuclear receptor coactivator 2 (Homo sapiens, UniProt P37231). Briefly: TR-FRET dose response biochemical High Throughput Screening assay for agonists of the steroid receptor coactivator 2 (SRC-2) recruitment by the peroxisome proliferator-activated receptor gamma (PPAR gamma): non-selective agonists. [Related pubchem assays: 1297, 1032 ]. The format is functional.

Experiment [7] deals with Peroxisome proliferator-activated receptor gamma/Nuclear receptor coactivator 1 (Homo sapiens, UniProt P37231). Briefly: TR-FRET dose response biochemical High Throughput Screening assay for agonists of the steroid receptor coactivator 1 (SRC-1) recruitment by the peroxisome proliferator-activated receptor gamma (PPAR gamma): non-selective agonists. [Related pubchem assays (depositor defined):AID1300, AID1808, AID504735, AID631]. The format is protein assay.

In experiment [8] the target is T5, Voltage-gated N-type calcium channel alpha-1B subunit/Amyloid beta A4 precursor protein-binding family A member 1 (Homo sapiens, UniProt Q00975+Q02410). The format is protein assay.
T5 sequence (Q00975 whole entry): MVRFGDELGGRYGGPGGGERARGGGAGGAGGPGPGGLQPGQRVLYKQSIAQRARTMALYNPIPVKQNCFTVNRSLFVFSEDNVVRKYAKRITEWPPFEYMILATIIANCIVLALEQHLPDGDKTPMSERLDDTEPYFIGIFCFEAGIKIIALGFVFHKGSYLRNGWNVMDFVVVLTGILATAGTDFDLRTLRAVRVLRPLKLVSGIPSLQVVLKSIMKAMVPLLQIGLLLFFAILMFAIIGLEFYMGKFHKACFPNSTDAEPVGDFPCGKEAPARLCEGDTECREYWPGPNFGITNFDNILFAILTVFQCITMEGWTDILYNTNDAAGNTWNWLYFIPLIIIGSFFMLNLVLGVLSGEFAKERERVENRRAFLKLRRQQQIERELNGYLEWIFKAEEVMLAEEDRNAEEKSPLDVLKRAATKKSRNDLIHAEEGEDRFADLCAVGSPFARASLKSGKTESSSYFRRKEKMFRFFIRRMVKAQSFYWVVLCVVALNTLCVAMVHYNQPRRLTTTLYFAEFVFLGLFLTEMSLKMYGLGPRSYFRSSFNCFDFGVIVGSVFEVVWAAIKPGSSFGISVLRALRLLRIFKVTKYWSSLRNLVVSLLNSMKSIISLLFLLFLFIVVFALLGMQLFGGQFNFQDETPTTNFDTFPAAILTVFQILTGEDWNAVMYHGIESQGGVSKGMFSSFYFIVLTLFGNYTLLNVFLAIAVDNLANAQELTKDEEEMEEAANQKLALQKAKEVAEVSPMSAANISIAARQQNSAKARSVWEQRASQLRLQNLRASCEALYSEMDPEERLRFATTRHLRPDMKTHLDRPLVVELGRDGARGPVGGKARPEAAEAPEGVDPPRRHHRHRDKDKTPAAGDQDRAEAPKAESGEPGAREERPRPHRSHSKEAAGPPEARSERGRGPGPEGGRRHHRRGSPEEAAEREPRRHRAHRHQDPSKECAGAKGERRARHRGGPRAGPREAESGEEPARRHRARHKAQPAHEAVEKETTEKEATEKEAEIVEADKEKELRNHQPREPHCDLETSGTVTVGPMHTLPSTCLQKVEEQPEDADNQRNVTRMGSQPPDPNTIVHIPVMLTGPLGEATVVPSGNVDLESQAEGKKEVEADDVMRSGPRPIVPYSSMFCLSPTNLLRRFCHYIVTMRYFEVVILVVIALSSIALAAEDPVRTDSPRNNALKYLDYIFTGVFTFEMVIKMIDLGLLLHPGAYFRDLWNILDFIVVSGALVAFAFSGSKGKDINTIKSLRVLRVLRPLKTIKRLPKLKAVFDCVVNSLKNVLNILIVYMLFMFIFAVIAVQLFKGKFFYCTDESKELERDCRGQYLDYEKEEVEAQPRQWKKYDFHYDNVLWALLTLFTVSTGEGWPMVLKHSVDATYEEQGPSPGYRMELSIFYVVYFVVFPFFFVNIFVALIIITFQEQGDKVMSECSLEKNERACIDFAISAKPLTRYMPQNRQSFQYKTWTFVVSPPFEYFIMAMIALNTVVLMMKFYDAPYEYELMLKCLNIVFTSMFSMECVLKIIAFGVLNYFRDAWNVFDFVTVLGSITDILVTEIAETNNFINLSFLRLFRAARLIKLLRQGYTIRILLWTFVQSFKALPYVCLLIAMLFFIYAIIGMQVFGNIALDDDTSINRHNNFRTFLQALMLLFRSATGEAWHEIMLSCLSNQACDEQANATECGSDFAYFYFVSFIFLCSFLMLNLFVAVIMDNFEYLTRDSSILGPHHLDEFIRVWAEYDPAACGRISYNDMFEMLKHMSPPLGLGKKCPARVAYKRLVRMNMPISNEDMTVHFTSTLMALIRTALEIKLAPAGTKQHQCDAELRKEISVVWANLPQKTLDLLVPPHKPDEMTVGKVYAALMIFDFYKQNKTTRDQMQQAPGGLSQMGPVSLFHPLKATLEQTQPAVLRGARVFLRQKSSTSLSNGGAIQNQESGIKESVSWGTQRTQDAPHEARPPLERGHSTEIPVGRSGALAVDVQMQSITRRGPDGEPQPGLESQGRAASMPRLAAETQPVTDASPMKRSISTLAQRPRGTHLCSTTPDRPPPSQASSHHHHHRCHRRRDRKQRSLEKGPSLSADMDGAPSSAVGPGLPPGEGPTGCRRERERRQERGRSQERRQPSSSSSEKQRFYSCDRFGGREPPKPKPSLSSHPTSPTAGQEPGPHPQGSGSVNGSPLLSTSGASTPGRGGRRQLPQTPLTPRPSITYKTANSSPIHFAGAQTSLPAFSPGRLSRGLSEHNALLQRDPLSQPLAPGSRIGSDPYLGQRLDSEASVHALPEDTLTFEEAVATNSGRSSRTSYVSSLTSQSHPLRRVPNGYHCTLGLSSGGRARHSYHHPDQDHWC
T5 sequence (Q02410 whole entry): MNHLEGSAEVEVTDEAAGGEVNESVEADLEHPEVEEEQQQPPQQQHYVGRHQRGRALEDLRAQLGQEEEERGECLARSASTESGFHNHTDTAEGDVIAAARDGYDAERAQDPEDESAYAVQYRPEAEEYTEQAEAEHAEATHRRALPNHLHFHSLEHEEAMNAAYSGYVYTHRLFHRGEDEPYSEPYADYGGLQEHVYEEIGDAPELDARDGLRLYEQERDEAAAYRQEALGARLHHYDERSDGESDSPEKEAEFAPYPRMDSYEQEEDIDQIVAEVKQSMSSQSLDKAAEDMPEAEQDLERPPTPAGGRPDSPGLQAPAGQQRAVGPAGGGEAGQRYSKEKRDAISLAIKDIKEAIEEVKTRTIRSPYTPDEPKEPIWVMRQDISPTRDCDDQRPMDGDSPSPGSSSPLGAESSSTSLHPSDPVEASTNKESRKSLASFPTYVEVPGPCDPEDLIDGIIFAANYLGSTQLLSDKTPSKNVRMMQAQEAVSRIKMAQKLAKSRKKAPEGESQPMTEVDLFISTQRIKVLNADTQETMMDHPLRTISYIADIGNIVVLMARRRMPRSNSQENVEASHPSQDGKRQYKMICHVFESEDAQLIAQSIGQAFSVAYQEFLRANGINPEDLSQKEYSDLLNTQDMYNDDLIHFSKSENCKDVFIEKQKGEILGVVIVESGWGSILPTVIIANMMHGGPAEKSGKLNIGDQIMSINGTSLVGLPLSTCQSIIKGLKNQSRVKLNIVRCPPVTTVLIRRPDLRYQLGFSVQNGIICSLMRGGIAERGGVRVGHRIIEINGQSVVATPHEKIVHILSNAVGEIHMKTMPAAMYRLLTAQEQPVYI
Experiment [9] addresses T5, Voltage-gated N-type calcium channel alpha-1B subunit/Amyloid beta A4 precursor protein-binding family A member 1. Format: protein assay. This is another data set of the same source.
In another experiment the target is Keap1/Nrf2 (Homo sapiens, UniProt Q14145). Briefly: disruptors of Keap1 binding to Nrf2 peptide – biochemical, fluorescence polarization, cherry-picked samples, dose response (AID 588683).
Experiment [10] deals with Lysine-specific demethylase 4C (Homo sapiens, UniProt Q9H3R0). Description: inhibition of JMJD2C H3K9me3 demethylation – biochemical, DELFIA europium, cherry-picked samples, dose response (AID 488835). The format is functional.
Chain of Lysine-specific demethylase 4C (Q9H3R0 whole entry): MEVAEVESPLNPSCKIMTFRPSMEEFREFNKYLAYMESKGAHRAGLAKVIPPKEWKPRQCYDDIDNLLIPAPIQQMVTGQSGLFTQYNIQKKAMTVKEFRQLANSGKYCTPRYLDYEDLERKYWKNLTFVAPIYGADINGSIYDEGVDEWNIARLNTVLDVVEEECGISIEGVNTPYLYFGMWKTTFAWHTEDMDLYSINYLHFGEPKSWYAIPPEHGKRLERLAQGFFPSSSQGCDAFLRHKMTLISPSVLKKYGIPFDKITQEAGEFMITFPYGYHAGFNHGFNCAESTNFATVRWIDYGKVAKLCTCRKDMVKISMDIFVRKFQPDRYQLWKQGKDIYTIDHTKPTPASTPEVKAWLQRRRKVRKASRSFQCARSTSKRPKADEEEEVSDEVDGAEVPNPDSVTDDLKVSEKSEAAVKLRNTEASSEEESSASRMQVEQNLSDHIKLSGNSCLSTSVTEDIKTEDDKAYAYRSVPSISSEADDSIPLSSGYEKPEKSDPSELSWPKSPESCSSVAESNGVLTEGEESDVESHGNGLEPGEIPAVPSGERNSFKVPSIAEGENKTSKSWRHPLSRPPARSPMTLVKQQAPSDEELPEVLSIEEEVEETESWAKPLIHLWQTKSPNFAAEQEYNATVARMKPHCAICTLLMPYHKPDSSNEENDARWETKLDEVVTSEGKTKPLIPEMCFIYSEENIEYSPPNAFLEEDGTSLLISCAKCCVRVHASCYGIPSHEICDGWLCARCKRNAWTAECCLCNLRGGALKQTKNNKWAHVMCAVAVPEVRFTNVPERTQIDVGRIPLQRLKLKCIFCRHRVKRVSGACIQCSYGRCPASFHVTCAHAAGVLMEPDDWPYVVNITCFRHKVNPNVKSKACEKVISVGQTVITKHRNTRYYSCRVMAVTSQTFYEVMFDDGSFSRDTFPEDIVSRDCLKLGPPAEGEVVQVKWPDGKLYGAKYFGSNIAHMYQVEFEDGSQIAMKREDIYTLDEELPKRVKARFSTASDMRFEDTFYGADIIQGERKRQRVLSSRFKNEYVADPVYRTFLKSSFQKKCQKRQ
The target in experiment [11] is DNA dC->dU-editing enzyme APOBEC-3A (Homo sapiens, UniProt P31941). Description: Dose Response confirmation of small molecule APOBEC3A DNA Deaminase Inhibitors via a fluorescence-based single-stranded DNA deaminase assay. [Related pubchem assays (depositor defined):AID493011, AID493024]. Format: functional.
Chain of DNA dC->dU-editing enzyme APOBEC-3A (P31941 whole entry): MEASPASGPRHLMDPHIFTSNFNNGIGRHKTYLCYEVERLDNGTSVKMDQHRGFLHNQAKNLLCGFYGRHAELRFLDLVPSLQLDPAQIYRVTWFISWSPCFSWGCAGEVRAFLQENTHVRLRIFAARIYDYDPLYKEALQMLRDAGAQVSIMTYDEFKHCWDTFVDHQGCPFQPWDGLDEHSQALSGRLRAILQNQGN
The target of experiment [12] is T6, High affinity choline transporter 1 (Homo sapiens, UniProt Q9GZV3).
T6 sequence (Q9GZV3 whole entry): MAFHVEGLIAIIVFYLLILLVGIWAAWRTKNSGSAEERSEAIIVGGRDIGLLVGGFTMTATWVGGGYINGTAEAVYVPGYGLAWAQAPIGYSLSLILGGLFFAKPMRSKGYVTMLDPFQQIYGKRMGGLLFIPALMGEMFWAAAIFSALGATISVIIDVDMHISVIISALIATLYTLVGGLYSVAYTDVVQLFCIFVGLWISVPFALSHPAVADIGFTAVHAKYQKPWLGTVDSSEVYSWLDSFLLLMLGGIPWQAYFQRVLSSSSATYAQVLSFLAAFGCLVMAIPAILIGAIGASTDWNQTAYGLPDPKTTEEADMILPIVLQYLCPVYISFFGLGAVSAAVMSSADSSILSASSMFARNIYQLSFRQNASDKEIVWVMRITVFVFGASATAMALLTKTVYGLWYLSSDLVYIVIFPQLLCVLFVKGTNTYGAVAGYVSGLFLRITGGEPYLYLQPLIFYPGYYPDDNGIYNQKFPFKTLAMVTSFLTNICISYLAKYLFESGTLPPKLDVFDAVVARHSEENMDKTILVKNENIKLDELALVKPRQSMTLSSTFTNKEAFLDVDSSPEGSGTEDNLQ
Briefly: human choline transporter blockers, potency – cell-based, 5-point CRC, membrane potential dye, dose response (AID 504840). The format is functional.

For experiment [13], the target named is DNA dC->dU-editing enzyme APOBEC-3G (Homo sapiens, UniProt Q9HC16). The format is functional.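 Note: Dose-response counterscreen measuring inhibition of APOBEC3G DNA deaminase activity, run while confirming APOBEC3A inhibitors.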
Experiment [14] in a line: toxicity toward cultured mammalian cells – cell-based, plate reader, cherry-pick samples, cytotoxicity control, dose response (AID 504397). Format: functional.
The target in the next experiment is T7, CAAX prenyl protease 2 (Saccharomyces cerevisiae S288c, UniProt Q03530).
T7 sequence (Q03530 whole entry): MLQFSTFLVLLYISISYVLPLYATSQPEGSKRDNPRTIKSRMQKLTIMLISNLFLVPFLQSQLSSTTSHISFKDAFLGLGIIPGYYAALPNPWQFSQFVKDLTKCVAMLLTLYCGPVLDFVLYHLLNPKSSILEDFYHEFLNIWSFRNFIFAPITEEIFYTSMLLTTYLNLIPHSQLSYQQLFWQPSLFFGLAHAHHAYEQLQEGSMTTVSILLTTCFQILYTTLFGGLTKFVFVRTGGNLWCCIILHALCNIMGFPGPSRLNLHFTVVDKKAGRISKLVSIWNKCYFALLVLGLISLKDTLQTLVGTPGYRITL
Format: biochemical.

The source made the active and inactive calls.

For `Clc1cccc(NC2=NN=C(c3ccc4c(c3)OCCO4)CS2)c1`, the EC50 at Hexokinase-1 is 41.3 µM (inactive); at Hexokinase HKDC1, 23.2 µM (inactive). Further, in the experiment with INS1, the concentration at half-maximal activity (AC50) was 2.25 µM (active).
`CCn1c(=O)c(C(=O)CN2CCCc3ccccc32)c(N)n(Cc2ccccc2)c1=O`: the cytotoxic concentration (CC50) in experiment [1] is 12.4 µM (active). Also, the EC50 at Troponin, cardiac muscle was > 23.8 µM (inactive).
Take `NC(=O)c1c(NC(=O)c2ccc(F)cc2)sc2c1CCC2`: the values for the EC50 (in [2]; in “cells”; in experiment [4]) were > 67.5 µM (inactive), > 67.5 µM (inactive) and > 100 µM (inactive), respectively. For the same molecule, the IC50 in [3] is > 100 µM (inactive).
With `COc1cc(OC)c(C(=O)OC(C)C(=O)Nc2cccc(C(F)(F)F)c2)cc1OC` (stereo unspecified), the EC50 on Troponin, cardiac muscle is > 71.5 µM (inactive).
As to `Cc1onc(-c2ccccc2Cl)c1C(=O)Nc1nnc(-c2ccc(Cl)cc2Cl)s1`, the figures for the EC50 in [5], in experiment [6] and in experiment [7] were 75.5 µM (not active), 42.8 µM (not active) and 51.2 µM (inactive), respectively.
Turning to `COc1cccc(/C=N/Nc2nn3cnnc3c3ccccc23)c1O`, the IC50 in experiment [8] was 20.6 µM (active); in experiment [9] it was > 50 µM (inactive). Further, the EC50 in [4] is > 100 µM (inactive).
In the case of `Cc1ccc(NC(=O)/C(C#N)=C(\N)C(Cl)(Cl)Cl)nc1`, the AC50 on Keap1/Nrf2 is 11.9 µM (active).
On to `Nc1cccc(C(=O)Nc2ccco2)c1`, for which the AC50 in experiment [10] is 27.5 µM (active).
On to `CC(=O)OCCCCCCCCCCC[N+]1(C)CCCCC1`, for which the 50% inhibitory concentration (IC50) in [11] was 2.03 µM (active); in [12], 14.1 µM (active); in experiment [13], 2.17 µM (active).
In the case of `CCN(CC)CCN(C(=O)c1ccc2ccccc2c1)c1nc2ccc(F)cc2s1`, the AC50 in experiment [14] is 181 µM (active); on CAAX prenyl protease 2, 6.18 µM (active).
Take `Sc1nc(-c2ccc(Cl)cc2)cs1`: the concentration for a half-maximal effect (EC50) is > 79.4 µM (not active) in [5], 21.8 µM (not active) in experiment [6] and 12 µM (inactive) in experiment [7].
